{"source": "paper PMC9145754", "about": "“Novel Soloxolone Amides as Potent Anti-Glioblastoma Candidates: Design, Synthesis, In Silico Analysis and Biological Activities In Vitro and In Vivo” (Pharmaceuticals, 2022)", "key": {"U87 cells [1]": {"tested_on": "U87 cells", "experiment": "Vasculogenic mimicry on Matrigel", "assay_type": "cell-based, human", "details": "12 at 200 nM, 5 h", "experimental": "Considering that vasculogenic mimicry (VM), a process whereby tumor cells form tumor cell-lined vasculatures to reinforce blood supply to cancerous tissue, plays a crucial role in glioblastoma progression and aggressiveness and that some pentacyclic triterpenoids can inhibit this process, next we studied whether 12 affects VM in glioblastoma cells.\nA 96-well plate was placed on ice for pre-cooling and Matrigel®® Matrix (Corning, Corning, NY, USA) was thawed at 4 °C and added to each well of the plate (50 μL/well). Then, the plate was placed at 37 °C in 5% CO2 for 1 h to solidify the Matrigel. U87 cells were seeded at 2 × 10^4 cells/well on the Matrigel-coated wells and treated with 12 at 200 nM for 5 h. At the end of the incubation time, each well was analyzed under a microscope with a phase contrast Primo Vert (ZEISS, Germany). Tubular structures in each field were imaged with a AxioCam ERc5s camera (ZEISS, Germany) and the average number of tubules from three to four random fields in each well was quantified by ImageJ. The experiment was performed in triplicate."}, "KELLY cells": {"tested_on": "KELLY cells", "experiment": "MTT cytotoxicity assay, KELLY", "assay_type": "cell-based", "details": "Homo sapiens, 24 h, read-out: IC50, Neuroblastoma, KELLY", "experimental": "(§1) To evaluate the antitumor activity of the synthesized soloxolone amides in brain tumor cells, the cytotoxicity of compounds 4–12, predicted as BBB-permeable (Figure 3), was further analyzed in human glioblastoma U87 and U118 cells, as well as human neuroblastoma KELLY and murine neuroblastoma Neuro2a cells.\n(§2) The cells in the exponential growth phase were seeded in quadruplicate in 96-well plates at a density of 1 × 10^4 cells/well for HeLa, U87, U118, KELLY and Neuro2a cells; 1.5 × 10^4 cells/well for HuTu-80 cells; 2 × 10^4 cells/well for B16 cells; and 7 × 10^3 cells/well for hFF3 fibroblasts. Cells were incubated under standard conditions overnight followed by their treatment with the investigated compounds (1–20 µM) for 24 h. Then, 10 µL of MTT solution was added to the cells to a final concentration of 0.5 mg/mL and plates were placed under standard conditions for 3 h followed by an aspiration of MTT-containing medium and a dissolution of formazan crystals with 100 µL of DMSO. The absorbance of each well was read at test and reference wavelengths of 570 and 620 nm, respectively, on a Multiscan RC plate reader (Thermo LabSystems, Helsinki, Finland)."}, "U118 cells": {"tested_on": "U118 cells", "experiment": "MTT cytotoxicity assay, U118", "assay_type": "cell-based", "details": "Homo sapiens, 24 h, read-out: IC50, Glioblastoma, U118", "experimental": "as §1, §2"}, "HuTu-80 cells": {"tested_on": "HuTu-80 cells", "experiment": "MTT cytotoxicity assay, HuTu-80", "assay_type": "cell-based", "details": "Homo sapiens, HuTu80, 24 h, read-out: IC50, Duodenum, HuTu-80", "experimental": "(§3) In the first step of the study, we analyzed the cytotoxicity of novel soloxolone derivatives 1–12 in a panel of tumor cells, including human cervical carcinoma HeLa, human duodenal carcinoma HuTu-80 and murine melanoma B16 cells, as well as human non-transformed hFF3 foreskin fibroblasts. The cells were treated with derivatives for 24 h and cell viability was evaluated by 3-(4,5-dimethylthiazol-2-yl)-2,5-diphenyltetrazolium bromide (MTT) assay. SM was used as the reference compound.\nas §2"}, "U118 glioblastoma cells": {"tested_on": "U118 glioblastoma cells", "experiment": "Annexin V-APC/PI apoptosis assay, U118", "assay_type": "cell-based, human", "details": "for apoptosis, % of U118 cells: 12 at 4 µM", "experimental": "To quantify the percentage of cells undergoing apoptosis, glioblastoma U87 and U118 cells were seeded in 6-well plates at 2.8 × 10^5 cells/well in complete growth medium and incubated at standard conditions overnight followed by treatment with 12 at 4 µM for 24 h. Thereafter, the cells were harvested by trypsinization (TrypLE Express (Gibco, USA)) and centrifugation at 400 g for 5 min, washed with PBS and stained with 5 µL of Annexin V-APC (Sony Biotechnology Inc., San Jose, CA, USA) and 10 µL of propidium iodide (PI) (Invitrogen, Waltham, MA, USA) for 15 min at room temperature in the dark. After the incubation time, the cells were analyzed using a NovoCyte Flow Cytometer (ACEA Biosciences Inc., San Diego, CA, USA). For each sample, 10,000 events were acquired."}, "caspase-3 and -7": {"tested_on": "caspase-3 and -7", "experiment": "Caspase-3/-7 activation (CellEvent reagent, flow cytometry)", "assay_type": "cell-based, human", "details": "U87 cells", "experimental": "To double check the pro-apoptotic activity of 12, its effect on the activation of executioner caspase-3 and -7, key markers of apoptosis, was evaluated in glioblastoma U87 cells.\nU87 cells were plated at a density of 2.8 × 10^5 cells/well in 6-well plates and treated with 12 at 2 and 4 μM for 6 and 24 h. Then, the cells were collected by trypsinization and centrifugation, washed with PBS and stained with CellEvent™ Caspase-3/7 Green ReadyProbes™ Reagent (Molecular Probes, Eugene, OR, USA) according to the manufacturer’s manual. Briefly, harvested cells were resuspended in 200 μL of PBS containing the reagent (1 drop/mL) and incubated for 30 min at room temperature. After that, flow cytometry analysis of the cells was performed using the NovoCyte Flow Cytometer. In total, 10,000 events were acquired for each sample."}, "[2]": {"tested_on": "hFF3 foreskin fibroblasts", "experiment": "MTT cytotoxicity assay, hFF3 fibroblasts", "assay_type": "cell-based, human", "details": "Homo sapiens, HFF-3, 24 h", "experimental": "as §3, §2"}, "U87 cells [3]": {"tested_on": "U87 cells", "experiment": "ROS production, DCFDA", "assay_type": "cell-based, human", "details": "U87, 12 at 4 µM, 24 h", "experimental": "To check the ability of 12 to influence ROS production, U87 cells treated with 12 (4 µM) for 24 h were stained with dichlorodihydrofluorescein diacetate (DCFDA) and analyzed by flow cytometry. […] Since ROS play an important role in the regulation of cell death, we further examined whether ROS production mediated the cytotoxicity of 12 with respect to glioblastoma cells.\nIntracellular ROS levels in glioblastoma cells were measured using a DCFDA/H2DCFDA-Cellular ROS Assay Kit (Abcam, Cambridge, UK) according to the manufacturer’s instructions. Briefly, U87 cells were collected by trypsinization and stained with DCFDA at 20 μM for 30 min under standard conditions and seeded in 6-well plates at 2.8 × 10^5 cells/well. Next, the cells were treated with 12 at 4 µM for 24 h, followed by their harvesting and flow cytometry analysis. In total, 10,000 events were recorded for each sample."}}, "data": [{"molecule": "CC1(C)C(=O)C(C#N)=C[C@]2(C)C3=CC(=O)[C@@H]4[C@@H]5C[C@@](C)(C(=O)NCCc6c[nH]c7ccccc67)CC[C@]5(C)CC[C@@]4(C)[C@]3(C)CC[C@@H]12", "note": "[compound 12]", "values": [{"measurement": "decrease in numbers of tubular structures compared with untreated cells", "setting": "U87 cells [1]", "value": 2.2, "unit": "fold"}, {"measurement": "IC50", "setting": "KELLY cells", "value": "1.8 ± 0.1", "unit": "µM"}, {"measurement": "IC50", "setting": "U118 cells", "value": "1.9 ± 0.2", "unit": "µM"}, {"measurement": "IC50", "setting": "HuTu-80 cells", "value": "1.5 ± 0.1", "unit": "µM"}, {"measurement": "apoptosis, % of U118 cells", "setting": "U118 glioblastoma cells; 6 h", "value": 11.7, "unit": "%"}, {"measurement": "apoptosis, % of U118 cells", "setting": "U118 glioblastoma cells; 18 h", "value": 34.4, "unit": "%"}, {"measurement": "apoptosis, % of U118 cells", "setting": "U118 glioblastoma cells; 24 h", "value": 41.5, "unit": "%"}, {"measurement": "number of necrotic cells", "setting": "U118 glioblastoma cells; U118, different samples (2 and 4 µM; 6–24 h)", "value": "≤ 10", "unit": "%"}, {"measurement": "activation of caspase-3 and -7", "setting": "caspase-3 and -7", "value": "effectively activated caspase-3 and -7 in a time-dependent manner"}, {"measurement": "IC50", "setting": "[2]", "value": "1.4 ± 0.2", "unit": "µM"}, {"measurement": "increase of ROS generation compared to the control", "setting": "U87 cells [3]", "value": 1.9, "unit": "fold"}]}]}
